Molecular target: human TYK2 (JH2domain-pseudokinase) (Homo sapiens (Human), UniProt P29597)
Assay: TYK2 JH2 Domain Binding Assay (KINOMEscan, DiscoveRx)
Conditions: 11-point dilution, duplicate
How it was run: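 Kd from duplicate 11-point 3-fold dilutions starting at 30,000 nM, fitted by Hill equation with slope fixed at −1. Compounds (final 0.9% DMSO) displace DNA-tagged HEK293-expressed TYK2 JH2 fusion (<0.1 nM) from ligand-coated beads over 1 h at room temperature; eluted kinase read by qPCR.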

human TYK2 (JH2domain-pseudokinase), sequence (P29597 556-888): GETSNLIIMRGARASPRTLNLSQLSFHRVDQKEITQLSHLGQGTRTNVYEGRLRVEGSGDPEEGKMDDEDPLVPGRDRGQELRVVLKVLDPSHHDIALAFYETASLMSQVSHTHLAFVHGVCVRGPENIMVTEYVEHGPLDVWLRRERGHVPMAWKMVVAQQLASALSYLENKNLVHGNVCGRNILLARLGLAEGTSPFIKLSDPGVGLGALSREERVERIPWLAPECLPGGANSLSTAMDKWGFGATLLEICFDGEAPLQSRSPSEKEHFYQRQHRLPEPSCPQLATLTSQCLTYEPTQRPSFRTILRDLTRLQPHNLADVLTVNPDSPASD

SMILES	Kd [nM]
Cc1cc(Nc2cc(Nc3ccc(-c4nc(C)cs4)cc3S(C)(=O)=O)c3nc(C(F)F)[nH]c3n2)nc(C)n1 [I-467, 2-(difluoromethyl)-N5-(2,6-dimethylpyrimidin-4-yl)-N7-(2-(methylsulfonyl)-4-(4-methylthiazol-2-yl)phenyl)-3H-imidazo[4,5-b]pyridine-5,7-diamine]	0.1 to 0.5
Cc1cc(Nc2cc(Nc3ccc(-c4nc(C)cs4)cc3S(C)(=O)=O)c3nc(C)[nH]c3n2)nc(C)n1 [I-468, N5-(2,6-dimethylpyrimidin-4-yl)-2-methyl-N7-(2-(methylsulfonyl)-4-(4-methylthiazol-2-yl)phenyl)-3H-imidazo[4,5-b]pyridine-5,7-diamine]	0.1 to 0.5
Cc1cc(Nc2cc(Nc3ccc(-c4nc(C)c(C)s4)cc3S(C)(=O)=O)c3nc(C(F)F)[nH]c3n2)nc(C)n1 [I-469, 2-(difluoromethyl)-N5-(2,6-dimethylpyrimidin-4-yl)-N7-(4-(4,5-dimethylthiazol-2-yl)-2-(methylsulfonyl)phenyl)-3H-imidazo[4,5-b]pyridine-5,7-diamine]	0.5 to 1
Cc1cc(Nc2cc(Nc3ccc(-c4nc(C)c(C)s4)cc3S(C)(=O)=O)c3nc(C)[nH]c3n2)nc(C)n1 [I-470, N5-(2,6-dimethylpyrimidin-4-yl)-N7-(4-(4,5-dimethylthiazol-2-yl)-2-(methylsulfonyl)phenyl)-2-methyl-3H-imidazo[4,5-b]pyridine-5,7-diamine]	0.1 to 0.5
CC1(C)COC(c2ccc(Nc3cc(NC(=O)[C@H]4C[C@H]4F)nc4[nH]c(C(F)F)nc34)c(S(C)(=O)=O)c2)=N1 [I-471, (1R,2R)—N-(2-(difluoromethyl)-7-((4-(4,4-dimethyl-4,5-dihydrooxazol-2-yl)-2-(methylsulfonyl)phenyl)amino)-3H-imidazo[4,5-b]pyridin-5-yl)-2-fluorocyclopropane-1-carboxamide]	1 to 10
Cc1nc2c(Nc3ccc([C@@H]4CCCO4)cc3S(C)(=O)=O)cc(NC(=O)C3CC3)nc2[nH]1 [I-472, (S)—N-(2-methyl-7-((2-(methylsulfonyl)-4-(tetrahydrofuran-2-yl)phenyl)amino)-3H-imidazo[4,5-b]pyridin-5-yl)cyclopropanecarboxamide]	0.1 to 0.5
Cc1nc2c(Nc3ccc([C@H]4CCCO4)cc3S(C)(=O)=O)cc(NC(=O)C3CC3)nc2[nH]1 [I-473, (R)—N-(2-methyl-7-((2-(methylsulfonyl)-4-(tetrahydrofuran-2-yl)phenyl)amino)-3H-imidazo[4,5-b]pyridin-5-yl)cyclopropanecarboxamide]	< 0.1
Cc1nc2c(Nc3ccc([C@H]4CCCCO4)cc3S(C)(=O)=O)cc(Nc3cnc(C)c(C)n3)nc2[nH]1 [I-474, (R)—N5-(5,6-dimethylpyrazin-2-yl)-2-methyl-N7-(2-(methylsulfonyl)-4-(tetrahydro-2H-pyran-2-yl)phenyl)-3H-imidazo[4,5-b]pyridine-5,7-diamine]	< 0.1
Cc1nc2c(Nc3ccc([C@@H]4CCCCO4)cc3S(C)(=O)=O)cc(Nc3cnc(C)c(C)n3)nc2[nH]1 [I-475, (S)—N5-(5,6-dimethylpyrazin-2-yl)-2-methyl-N7-(2-(methylsulfonyl)-4-(tetrahydro-2H-pyran-2-yl)phenyl)-3H-imidazo[4,5-b]pyridine-5,7-diamine]	0.1 to 0.5
Cc1csc(-c2ccc(Nc3cc(Nc4cc5n(n4)CCOC5)nc4[nH]c(C(F)F)nc34)c(S(C)(=O)=O)c2)n1 [I-476]	0.1 to 0.5
Cc1csc(-c2ccc(Nc3cc(Nc4cc5n(n4)CCOC5)nc4[nH]c(C)nc34)c(S(C)(=O)=O)c2)n1 [I-477, N5-(6,7-dihydro-4H-pyrazolo[5,1-c][1,4]oxazin-2-yl)-2-methyl-N7-(2-(methylsulfonyl)-4-(4-methylthiazol-2-yl)phenyl)-3H-imidazo[4,5-b]pyridine-5,7-diamine]	0.1 to 0.5
Cc1nc2c(Nc3ccc(-c4nn(C)cc4C)cc3S(C)(=O)=O)cc(NC(=O)[C@@H]3CC3(C)C)nc2[nH]1 [I-478, (R)—N-(7-((4-(1,4-dimethyl-1H-pyrazol-3-yl)-2-(methylsulfonyl)phenyl)amino)-2-methyl-3H-imidazo[4,5-b]pyridin-5-yl)-2,2-dimethylcyclopropane-1-carboxamide]	1 to 10
Cc1nc2c(Nc3ccc(-c4nn(C)cc4C)cc3S(C)(=O)=O)cc(NC(=O)[C@H]3CC3(C)C)nc2[nH]1 [I-479, (S)—N-(7-((4-(1,4-dimethyl-1H-pyrazol-3-yl)-2-(methylsulfonyl)phenyl)amino)-2-methyl-3H-imidazo[4,5-b]pyridin-5-yl)-2,2-dimethylcyclopropane-1-carboxamide]	1 to 10
Cc1nc(-c2ccc(Nc3cc(Nc4cc5n(n4)CCOC5)nc4[nH]c(C(F)F)nc34)c(S(C)(=O)=O)c2)sc1C [I-480, 2-(difluoromethyl)-N5-(6,7-dihydro-4H-pyrazolo[5,1-c][1,4]oxazin-2-yl)-N7-(4-(4,5-dimethylthiazol-2-yl)-2-(methylsulfonyl)phenyl)-3H-imidazo[4,5-b]pyridine-5,7-diamine]	0.1 to 0.5
Cc1nc(-c2ccc(Nc3cc(NC(=O)C4CC4)nc4[nH]c(C(F)F)nc34)c(S(C)(=O)=O)c2)c(C)s1 [I-481, N-(2-(difluoromethyl)-7-((4-(2,5-dimethylthiazol-4-yl)-2-(methylsulfonyl)phenyl)amino)-3H-imidazo[4,5-b]pyridin-5-yl)cyclopropanecarboxamide]	0.1 to 0.5
CC1(C)CSC(c2ccc(Nc3cc(NC(=O)[C@H]4CC4(F)F)nc4[nH]c(C(F)F)nc34)c(S(C)(=O)=O)c2)=N1 [I-482, (R)—N-(2-(difluoromethyl)-7-((4-(4,4-dimethyl-4,5-dihydrothiazol-2-yl)-2-(methylsulfonyl)phenyl)amino)-3H-imidazo[4,5-b]pyridin-5-yl)-2,2-difluorocyclopropane-1-carboxamide]	1 to 10
CC1(C)CSC(c2ccc(Nc3cc(NC(=O)[C@@H]4CC4(F)F)nc4[nH]c(C(F)F)nc34)c(S(C)(=O)=O)c2)=N1 [I-483, (S)—N-(2-(difluoromethyl)-7-((4-(4,4-dimethyl-4,5-dihydrothiazol-2-yl)-2-(methylsulfonyl)phenyl)amino)-3H-imidazo[4,5-b]pyridin-5-yl)-2,2-difluorocyclopropane-1-carboxamide]	> 10
Cc1nc2c(Nc3ccc(C4=NC(C)(C)CS4)cc3S(C)(=O)=O)cc(NC(=O)[C@H]3CC3(F)F)nc2[nH]1 [I-484, (R)—N-(7-((4-(4,4-dimethyl-4,5-dihydrothiazol-2-yl)-2-(methylsulfonyl)phenyl)amino)-2-methyl-3H-imidazo[4,5-b]pyridin-5-yl)-2,2-difluorocyclopropane-1-carboxamide]	1 to 10
Cc1nc2c(Nc3ccc(C4=NC(C)(C)CS4)cc3S(C)(=O)=O)cc(NC(=O)[C@@H]3CC3(F)F)nc2[nH]1 [I-485, (S)—N-(7-((4-(4,4-dimethyl-4,5-dihydrothiazol-2-yl)-2-(methylsulfonyl)phenyl)amino)-2-methyl-3H-imidazo[4,5-b]pyridin-5-yl)-2,2-difluorocyclopropane-1-carboxamide]	> 10
Cc1ncc(Nc2cc(Nc3ccc([C@H]4CCCCO4)cc3S(C)(=O)=O)c3nc(C(F)F)[nH]c3n2)nc1C [I-486, (R)-2-(difluoromethyl)-N5-(5,6-dimethylpyrazin-2-yl)-N7-(2-(methylsulfonyl)-4-(tetrahydro-2H-pyran-2-yl)phenyl)-3H-imidazo[4,5-b]pyridine-5,7-diamine]	0.1 to 0.5
Cc1ncc(Nc2cc(Nc3ccc([C@@H]4CCCCO4)cc3S(C)(=O)=O)c3nc(C(F)F)[nH]c3n2)nc1C [I-487, (S)-2-(difluoromethyl)-N5-(5,6-dimethylpyrazin-2-yl)-N7-(2-(methylsulfonyl)-4-(tetrahydro-2H-pyran-2-yl)phenyl)-3H-imidazo[4,5-b]pyridine-5,7-diamine]	0.5 to 1
Cc1nc2c(Nc3ccc(-c4nc(C)sc4C)cc3S(C)(=O)=O)cc(NC(=O)C3CC3)nc2[nH]1 [I-488, N-(7-((4-(2,5-dimethylthiazol-4-yl)-2-(methylsulfonyl)phenyl)amino)-2-methyl-3H-imidazo[4,5-b]pyridin-5-yl)cyclopropanecarboxamide]	< 0.1
CC(C)c1ccc(Nc2cc(Nc3ccccc3S(C)(=O)=O)c3nc(C(F)F)[nH]c3n2)nc1C#N [I-489, 6-((2-(difluoromethyl)-7-((2-(methylsulfonyl)phenyl)amino)-3H-imidazo[4,5-b]pyridin-5-yl)amino)-3-isopropylpicolinonitrile]	0.1 to 0.5
Cc1nc2c(Nc3ccccc3S(C)(=O)=O)cc(Nc3ccc(C(C)C)c(C#N)n3)nc2[nH]1 [I-490, 3-isopropyl-6-((2-methyl-7-((2-(methylsulfonyl)phenyl)amino)-3H-imidazo[4,5-b]pyridin-5-yl)amino)picolinonitrile]	0.1 to 0.5
Cc1c(-c2ccc(Nc3cc(Nc4cc5n(n4)CCOC5)nc4[nH]c(C(F)F)nc34)c(S(C)(=O)=O)c2)cnn1C [I-491, 2-(difluoromethyl)-N5-(6,7-dihydro-4H-pyrazolo[5,1-c][1,4]oxazin-2-yl)-N7-(4-(1,5-dimethyl-1H-pyrazol-4-yl)-2-(methylsulfonyl)phenyl)-3H-imidazo[4,5-b]pyridine-5,7-diamine]	< 0.1
Cc1nc2c(Nc3ccc(-c4cnn(C)c4C)cc3S(C)(=O)=O)cc(Nc3cc4n(n3)CCOC4)nc2[nH]1 [I-492, N5-(6,7-dihydro-4H-pyrazolo[5,1-c][1,4]oxazin-2-yl)-N7-(4-(1,5-dimethyl-1H-pyrazol-4-yl)-(methylsulfonyl)phenyl)-2-methyl-3H-imidazo[4,5-b]pyridine-5,7-diamine]	< 0.1
Cc1c(-c2ccc(Nc3cc(Nc4cccc(C(F)(F)F)n4)nc4[nH]c(C(F)F)nc34)c(S(C)(=O)=O)c2)cnn1C [I-493, 2-(difluoromethyl)-N7-(4-(1,5-dimethyl-1H-pyrazol-4-yl)-2-(methylsulfonyl)phenyl)-N5-(6-(trifluoromethyl)pyridin-2-yl)-3H-imidazo[4,5-b]pyridine-5,7-diamine]	0.1 to 0.5

Source: patent US10647713B2 (Nimbus Lakshmi, Inc., priority 2016, dated 2020)
